Data published in patent US10428066B2, “Imidazo[4,5-C]pyridine and pyrrolo[2,3-C]pyridine derivatives as SSAO inhibitors” (PROXIMAGEN, LLC, priority 2013, dated 2019).

biological target: purified recombinantly expressed human SSAO (Homo sapiens (Human), UniProt Q16853); assay: SSAO enzyme inhibition assay (HRP-coupled hydrogen peroxide detection or 14C-benzaldehyde detection, benzylamine substrate); assay type: biochemical; settings: human recombinant SSAO, RT
Protocol: All primary assays were performed at RT. with purified recombinantly expressed human SSAO. Enzyme was prepared essentially as described in Öhman et al. (Protein Expression and Purification 46 (2006) 321-331). In addition, secondary- and selectivity assays were performed using SSAO prepared from various tissues or purified rat recombinant SSAO. The enzyme activity was assayed with benzylamine as substrate by measuring either benzaldehyde production, using ^14C-labeled substrate, or by utilizing the production of hydrogen peroxide in a horseradish peroxidase (HRP) coupled reaction. Briefly, test compounds were dissolved in dimethyl sulfoxide (DMSO) to a concentration of 10 mM. Dose-response measurements were assayed by either creating 1:10 serial dilutions in DMSO to produce a 7 point curve or by making 1:3 serial dilutions in DMSO to produce 11 point curves.
In a horseradish peroxidase (HRP) coupled reaction, hydrogen peroxide oxidation of 10-acetyl-3,7-dihydroxyphenoxazine produced resorufin, which is a highly fluorescent compound (Zhout and Panchuk-Voloshina. Analytical Biochemistry 253 (1997) 169-174; Amplex® Red Hydrogen Peroxide/peroxidase Assay kit, Invitrogen A22188). Enzyme and compounds in 50 mM sodium phosphate, pH 7.4 were set to pre-incubate in flat-bottomed microtiter plates for approximately 15 min before initiating the reaction by addition of a mixture of HRP, benzylamine and Amplex reagent. Benzylamine concentration was fixed at a concentration corresponding to the Michaelis constant, determined using standard procedures. Fluorescence intensity was then measured at several time points during 1-2 h, exciting at 544 nm and reading the emission at 590 nm. For the human SSAO assay final concentrations of the reagents in the assay wells were: SSAO enzyme 1 ug/ml, benzylamine 100 uM, Amplex reagent 20 uM, HRP 0.1 U/mL and varying concentrations of test compound. The inhibition was measured as % decrease of the signal compared to a control without inhibitor (only diluted DMSO). The background signal from a sample containing no SSAO enzyme was subtracted from all data points. Data was fitted to a four parameter logistic model and IC50 values were calculated using the GraphPad Prism 4 or XLfit 4 programs.
SSAO activity was assayed using 14C-labeled benzylamine and analysed by measuring radioactive benzaldehyde. In a white 96-well optiplate (Packard), 20 uL of diluted test compound was pre-incubated at room temperature with 20 uL SSAO enzyme for approximately 15 min with continuous agitation. All dilutions were made with PBS. The reaction was initiated by adding 20 uL of the benzylamine substrate solution containing [7-14C] Benzylamine hydrochloride (CFA589, GE Healthcare). The plate was incubated for 1 h as above after which the reaction was stopped by acidification (10 uL 1M aq HCl). Then 90 uL Micro Scint-E solution (Perkin-Elmer) was added to each well and the plate was continuously mixed for 15 min. Phase separation occurred instantly and activity was read in a Topcount scintillation counter (Perkin-Elmer). In the final reaction well, the human recombinant SSAO concentration was 10 ug/ml. In order to optimize sensitivity, the substrate concentration was decreased as compared to the HRP coupled assay in order to get a higher fraction of radioactive product. In the human SSAO assay, benzylamine concentration was 40 uM (0.2 uCi/mL). Data was analysed as above.

Chain of purified recombinantly expressed human SSAO (Q16853 29-763): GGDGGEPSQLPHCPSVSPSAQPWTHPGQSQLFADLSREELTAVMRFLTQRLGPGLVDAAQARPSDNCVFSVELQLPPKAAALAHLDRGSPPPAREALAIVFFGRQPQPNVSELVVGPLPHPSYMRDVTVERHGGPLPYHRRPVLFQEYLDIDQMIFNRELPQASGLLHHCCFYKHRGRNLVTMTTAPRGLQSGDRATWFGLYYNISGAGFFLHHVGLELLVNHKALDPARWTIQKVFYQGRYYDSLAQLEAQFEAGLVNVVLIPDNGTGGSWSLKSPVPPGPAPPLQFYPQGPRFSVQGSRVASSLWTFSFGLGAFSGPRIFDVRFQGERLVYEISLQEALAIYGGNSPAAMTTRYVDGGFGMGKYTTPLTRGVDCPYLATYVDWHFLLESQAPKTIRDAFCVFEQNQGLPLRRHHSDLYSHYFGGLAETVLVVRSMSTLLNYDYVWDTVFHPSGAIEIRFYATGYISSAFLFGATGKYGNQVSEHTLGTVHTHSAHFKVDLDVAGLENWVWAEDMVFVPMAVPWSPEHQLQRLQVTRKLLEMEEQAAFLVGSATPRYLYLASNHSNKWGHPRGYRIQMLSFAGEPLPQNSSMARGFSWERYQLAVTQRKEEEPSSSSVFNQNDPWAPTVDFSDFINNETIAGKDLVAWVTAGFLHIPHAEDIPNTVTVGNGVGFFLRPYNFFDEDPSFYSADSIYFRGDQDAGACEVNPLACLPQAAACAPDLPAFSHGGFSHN

Row | IC50 [nM] | Compound
1 | 200 to 1200 | Cc1ccc(-n2c(-c3cnc(N4CCOCC4)nc3)nc3ccncc32)cn1 [Example 58, 4-{5-[3-(6-Methylpyridin-3-yl)-3H-imidazo[4,5-c]pyridin-2-yl]pyrimidin-2-yl}morpholine]
2 | 50 to 200 | Brc1ccc(-n2c(-c3cnc(N4CCOCC4)nc3)nc3ccncc32)cc1 [Example 59, 4-{5-[3-(4-Bromophenyl)-3H-imidazo[4,5-c]pyridin-2-yl]pyrimidin-2-yl}morpholine]
3 | 50 to 200 | Fc1ccccc1-n1c(-c2cnc(N3CCOCC3)nc2)nc2ccncc21 [Example 60, 4-{5-[3-(2-Fluorophenyl)-3H-imidazo[4,5-c]pyridin-2-yl]pyrimidin-2-yl}morpholine]
4 | 50 to 200 | Cc1cc(F)ccc1-n1c(-c2ccc(N3CCOCC3)nc2)nc2ccncc21 [Example 62, 4-{5-[3-(4-Fluoro-2-methylphenyl)-3H-imidazo[4,5-c]pyridin-2-yl]pyridin-2-yl}morpholine]
5 | 200 to 1200 | Cc1ccc(-n2c(-c3ccc(N4CCOCC4)nc3)nc3ccncc32)cc1 [Example 63, 4-{5-[3-(4-Methylphenyl)-3H-imidazo[4,5-c]pyridin-2-yl]pyridin-2-yl}morpholine]
6 | 200 to 1200 | Cc1ccc(-n2c(-c3ccc(N4CCOCC4)nc3)nc3ccncc32)cn1 [Example 64, 4-{5-[3-(6-Methylpyridin-3-yl)-3H-imidazo[4,5-c]pyridin-2-yl]pyridin-2-yl}morpholine]
7 | 50 to 200 | FC(F)(F)c1ccc(-n2c(-c3ccc(N4CCOCC4)nc3)nc3ccncc32)cc1 [Example 66, 4-(5-{3-[4-(Trifluoromethyl)phenyl]-3H-imidazo[4,5-c]pyridin-2-yl}pyridin-2-yl)morpholine]
8 | 200 to 1200 | CN(C)c1ccc(-c2nc3ccncc3n2-c2ccc(F)cc2)cn1 [Example 71, 5-[3-(4-Fluorophenyl)-3H-imidazo[4,5-c]pyridin-2-yl]-N,N-dimethylpyridin-2-amine]
9 | 200 to 1200 | CN(C)c1ncc(-c2nc3ccncc3n2-c2ccc(Cl)cc2)cn1 [Example 72, 5-[3-(4-Chlorophenyl)-3H-imidazo[4,5-c]pyridin-2-yl]-N,N-dimethylpyrimidin-2-amine]
10 | 50 to 200 | Fc1ccc(-n2c(-c3ccnc(N4CCOCC4)c3)nc3ccncc32)cc1 [Example 73, 4-{4-[3-(4-Fluorophenyl)-3H-imidazo[4,5-c]pyridin-2-yl]pyridin-2-yl}morpholine]
11 | 200 to 1200 | Fc1cc(-n2c(-c3cnc(N4CCOCC4)nc3)nc3ccncc32)ccc1Cl [Example 74, 4-{5-[3-(4-Chloro-3-fluorophenyl)-3H-imidazo[4,5-c]pyridin-2-yl]pyrimidin-2-yl}morpholine]
12 | 50 to 200 | Fc1ccc(-n2c(-c3cnc(N4CCOCC4)nc3)nc3ccncc32)nc1 [Example 76, 4-{5-[3-(5-Fluoropyridin-2-yl)-3H-imidazo[4,5-c]pyridin-2-yl]pyrimidin-2-yl}morpholine]
13 | 200 to 1200 | Fc1cc(Cl)ccc1-n1c(-c2cnc(N3CCOCC3)nc2)nc2ccncc21 [Example 77, 4-{5-[3-(4-Chloro-2-fluorophenyl)-3H-imidazo[4,5-c]pyridin-2-yl]pyrimidin-2-yl}morpholine]
14 | 50 to 200 | Fc1cc(Cl)ccc1-n1c(-c2ccc(N3CCOCC3)nc2)nc2ccncc21 [Example 80, 4-{5-[3-(4-Chloro-2-fluorophenyl)-3H-imidazo[4,5-c]pyridin-2-yl]pyridin-2-yl}morpholine]
15 | 200 to 1200 | NC(=O)NC1CCN(c2ccc(-c3nc4ccncc4n3-c3ccc(Cl)cc3)cn2)CC1 [Example 91, (1-{5-[3-(4-Chlorophenyl)-3H-imidazo[4,5-c]pyridin-2-yl]pyridin-2-yl}piperidin-4-yl)urea; bis(trifluoroacetic acid)]
16 | 50 to 200 | NC(=O)N1CCN(c2ncc(-c3nc4ccncc4n3-c3ccc(Cl)cc3)o2)CC1 [Example 93, 4-{5-[3-(4-Chlorophenyl)-3H-imidazo[4,5-c]pyridin-2-yl]-1,3-oxazol-2-yl}piperazine-1-carboxamide]
17 | 200 to 1200 | NC(=O)N1CCCN(c2ccc(-c3nc4ccncc4n3-c3ccc(F)cc3)cn2)CC1 [Example 94, 4-{5-[3-(4-Fluorophenyl)-3H-imidazo[4,5-c]pyridin-2-yl]pyridin-2-yl}-1,4-diazepane-1-carboxamide]
18 | 50 to 200 | c1ccc(-n2c(-c3cnc(N4CCOCC4)nc3)nc3ccncc32)cc1 [Example 95, 4-(5-{3-Phenyl-3H-imidazo[4,5-c]pyridin-2-yl}pyrimidin-2-yl) morpholine]
19 | 50 to 200 | c1cc2nc(-c3cnc(N4CCOCC4)nc3)n(-c3ccc(C4CC4)cc3)c2cn1 [Example 96, 4-{5-[3-(4-Cyclopropylphenyl)-3H-imidazo[4,5-c]pyridin-2-yl]pyrimidin-2-yl}morpholine]
20 | 200 to 1200 | Cc1ccc(-n2c(-c3cnc(N4CCOCC4)cc3C)nc3ccncc32)cc1 [Example 97, 4-{4-Methyl-5-[3-(4-methylphenyl)-3H-imidazo[4,5-c]pyridin-2-yl]pyridin-2-yl}morpholine]
21 | 50 to 200 | Fc1ccc(-n2c(-c3cnc(N4CCOCC4)c(F)c3)nc3ccncc32)cc1 [Example 98, 4-{3-Fluoro-5-[3-(4-fluorophenyl)-3H-imidazo[4,5-c]pyridin-2-yl]pyridin-2-yl}morpholine]
22 | 200 to 1200 | Cc1cc(NC2CCOCC2)ncc1-c1nc2ccncc2n1-c1ccc(F)cc1 [Example 100, 5-[3-(4-Fluorophenyl)-3H-imidazo[4,5-c]pyridin-2-yl]-4-methyl-N-(oxan-4-yl)pyridin-2-amine]
23 | 50 to 200 | Cc1cc(NCC2CC2)ncc1-c1nc2ccncc2n1-c1ccc(F)cc1 [Example 101, N-(Cyclopropylmethyl)-5-[3-(4-fluorophenyl)-3H-imidazo[4,5-c]pyridin-2-yl]-4-methylpyridin-2-amine]
24 | 50 to 200 | Cc1ccc(-n2c(-c3ccc(N4C[C@@H](C)O[C@@H](C)C4)nc3)nc3ccncc32)cn1 [Example 103, (2R,6S)-2,6-Dimethyl-4-{5-[3-(6-methylpyridin-3-yl)-3H-imidazo[4,5-c]pyridin-2-yl]pyridin-2-yl}morpholine; tris(trifluoroacetic acid)]
25 | 200 to 1200 | Nc1ccc(-c2nc3ccncc3n2-c2ccc(Cl)cc2F)cn1 [Example 105, 5-[3-(4-Chloro-2-fluorophenyl)-3H-imidazo[4,5-c]pyridin-2-yl]pyridin-2-amine]
26 | 50 to 200 | CN1CCN(c2ccc(-c3nc4ccncc4n3-c3ccc(F)cc3)cn2)CC1=O [Example 106, 4-{5-[3-(4-Fluorophenyl)-3H-imidazo[4,5-c]pyridin-2-yl]pyridin-2-yl}-1-methylpiperazin-2-one]
27 | 200 to 1200 | Cc1nc(N2CCOCC2)ccc1-c1nc2ccncc2n1-c1ccc(F)cc1 [Example 108, 4-{5-[3-(4-Fluorophenyl)-3H-imidazo[4,5-c]pyridin-2-yl]-6-methylpyridin-2-yl}morpholine]
28 | 200 to 1200 | CN(C)c1cc(-c2nc3ccncc3n2-c2ccc(F)cc2)ccn1 [Example 109, 4-[3-(4-Fluorophenyl)-3H-imidazo[4,5-c]pyridin-2-yl]-N,N-dimethylpyridin-2-amine]
29 | 200 to 1200 | Nc1ccc(-c2nc3ccncc3n2-c2ccc(Cl)cc2)cn1 [Example 110, 5-[3-(4-Chlorophenyl)-3H-imidazo[4,5-c]pyridin-2-yl]pyridin-2-amine]
